Laboratory results taken from patent US5206227A, “Composition and use of phosphonic acid, (2-halo-2-cyanoethenyl)-dialkyl esters as antimicrobials” (priority 1992, dated 1993).

What was measured:
[1] = system: Klebsiella pneumoniae; assay: Minimum inhibitory concentration (MIC), nutrient agar; assay type: cell-based, Klebsiella pneumoniae (ATCC 8308); details: Kp, 30° C., 48 hours
Protocol: (§1) The minimum inhibitory concentration (MIC) for compounds of this invention, listed in Table I, is determined for 9 bacteria, using nutrient agar, and 7 yeast and fungi, using malt yeast agar. A one percent solution of a compound is prepared in a mixture of acetone and water. Nutrient agar is prepared at pH 6.8, representing a neutral medium, and at pH 8.2, representing an alkaline medium. The nutrient agars are prepared by adding 23 g of nutrient agar to one-liter of deionized water. In addition, the alkaline medium is prepared by adjusting a 0.04M solution of N-[tris-(hydroxymethyl)methyl]-glycine buffered deionized water with concentrated sodium hydroxide to a pH of […]. Malt yeast agar is prepared by adding 3 g yeast extract and 45 g malt agar per liter of deionized water. The specific agar is dispensed in 30 ml aliquots into 25×200 mm test tubes, capped and autoclaved for 15 minutes at 115° C. The test tubes containing the agar are cooled in a water bath until the temperature of the agar is 48° C. Then, an appropriate amount of the one percent solution of the compound is added (except in the controls where no compound is added) to the respective test tubes so that the final concentrations are 500, 250, 100, 50, 25, 10, 5, 2.5, 1.0 and zero parts per million of the compound in the agar, thus having a known concentration of compound dispersed therein. The contents of the test tubes are then transferred to respective petri plates. After drying for 24 hours, the petri plates containing nutrient agar are inoculated with bacteria and those containing malt yeast agar are inoculated with yeast and fungi.
(§2) The inoculation with bacteria is accomplished by using the following procedure. Twenty-four hour-cultures of each of the bacteria are prepared by incubating the respective bacteria in tubes containing nutrient broth for 24 hours at 30° C. in a shaker. Dilutions of each of the 24 hour-cultures are made so that nine separate suspensions (one for each of the nine test bacteria) are made, each containing 10^8 colony forming units (CFU) per milliliter of suspension of a particular bacteria. Aliquots of 0.3 ml of each of the bacterial suspensions are used to fill the individual wells of Steer's Replicator. For each microbial suspension 0.3 ml was used to fill three wells (i.e., three wells of 0.3 ml each) […] to inoculate both the neutral and alkaline pH nutrient agar petri plates.
(§3) The inoculated petri plates are incubated at 30° C. for 48 hours and then read to determine if the compound which is incorporated into the agar prevented growth of the respective bacteria. […]

[2] = system: Escherichia coli; assay: as above; assay type: cell-based, Escherichia coli (ATCC 11229); details: Ec, 30° C., 48 hours
Protocol: as §1, §2, §3

[3] = system: Fusarium oxysporum; assay: Minimum inhibitory concentration (MIC), malt yeast agar; assay type: cell-based, Fusarium oxysporum (ATCC 48112); details: Fo, 30° C., 72 hours (fungi)
Protocol: (§4) The minimum inhibitory concentration (MIC) for compounds of this invention, listed in Table I, is determined for 9 bacteria, using nutrient agar, and 7 yeast and fungi, using malt yeast agar. A one percent solution of a compound is prepared in a mixture of acetone and water. Nutrient agar is prepared at pH 6.8, representing a neutral medium, and at pH 8.2, representing an alkaline medium. The nutrient agars are prepared by adding 23 g of nutrient agar to one-liter of deionized water. In addition, the alkaline medium is prepared by adjusting a 0.04M solution of N-[tris-(hydroxymethyl)methyl]-glycine buffered deionized water with concentrated sodium hydroxide to a pH of […]. Malt yeast agar is prepared by adding 3 g yeast extract and 45 g malt agar per liter of deionized water. The specific agar is dispensed in 30 ml aliquots into 25×200 mm test tubes, capped and autoclaved for 15 minutes at 115° C. The test tubes containing the agar are cooled in a water bath until the temperature of the agar is 48° C. […]
(§5) The inoculation with the yeast and fungi is accomplished as follows. […] The petri plates are incubated at 30° C. and read after 48 hours for yeast and 72 hours for fungi. […]

[4] = system: Salmonella choleraesuis; assay: Minimum inhibitory concentration (MIC), nutrient agar; assay type: cell-based, Salmonella choleraesuis (ATCC 10708); details: Sc, 30° C., 48 hours
Protocol: as §1, §2, §3

[5] = system: Proteus vulgaris; assay: as above; assay type: cell-based, Proteus vulgaris (ATCC 881); details: Pv, 30° C., 48 hours
Protocol: as §1, §2, §3

[6] = system: Saccharomyces cerevisiae; assay: Minimum inhibitory concentration (MIC), malt yeast agar; assay type: cell-based, Saccharomyces cerevisiae (ATCC 4105); details: Sc, 30° C., 48 hours (yeast)
Protocol: as §4, §5

[7] = system: Staphylococcus aureus; assay: Minimum inhibitory concentration (MIC), nutrient agar; assay type: cell-based, Staphylococcus aureus (ATCC 6538); details: Sa, 30° C., 48 hours
Protocol: as §1, §2, §3

[8] = system: Candida albicans; assay: Minimum inhibitory concentration (MIC), malt yeast agar; assay type: cell-based, Candida albicans (ATCC 10231); details: Ca, 30° C., 48 hours (yeast)
Protocol: as §4, §5

[9] = system: Enterobacter aerogenes; assay: Minimum inhibitory concentration (MIC), nutrient agar; assay type: cell-based, Enterobacter aerogenes (ATCC 13048); details: Ea, 30° C., 48 hours
Protocol: as §1, §2, §3

[10] = system: Pseudomonas aeruginosa (Pa); assay: as above; assay type: cell-based, Pseudomonas aeruginosa (ATCC 10145); details: 30° C., 48 hours
Protocol: as §1, §2, §3

[11] = system: Bacillus subtilis; assay: as above; assay type: cell-based, Bacillus subtilis (ATCC 8473); details: Bs, 30° C., 48 hours
Protocol: as §1, §2, §3

[12] = system: Aspergillus niger; assay: Minimum inhibitory concentration (MIC), malt yeast agar; assay type: cell-based, Aspergillus niger (ATCC 16404); details: An, 30° C., 72 hours (fungi)
Protocol: as §4, §5

[13] = system: Trichoderma viride; assay: as above; assay type: cell-based, Trichoderma viride (ATCC 8678); details: Tv, 30° C., 72 hours (fungi)
Protocol: as §4, §5

[14] = system: Penicillium chrysogenum; assay: as above; assay type: cell-based, Penicillium chrysogenum (ATCC 9480); details: Pc, 30° C., 72 hours (fungi)
Protocol: as §4, §5

[15] = system: Pseudomonas aeruginosa (PRD-10); assay: Minimum inhibitory concentration (MIC), nutrient agar; assay type: cell-based, Pseudomonas aeruginosa (ATCC 15442); details: 30° C., 48 hours
Protocol: as §1, §2, §3

Row | SMILES | Minimum Inhibitory Concentration (MIC) ([1]; pH 6.8, nutrient agar) | Minimum Inhibitory Concentration (MIC) ([1]; pH 8.2, nutrient agar) | Minimum Inhibitory Concentration (MIC) ([2]; pH 6.8, nutrient agar) | Minimum Inhibitory Concentration (MIC) ([2]; pH 8.2, nutrient agar) | Minimum Inhibitory Concentration (MIC) [3] | Minimum Inhibitory Concentration (MIC) ([4]; pH 6.8, nutrient agar) | Minimum Inhibitory Concentration (MIC) ([4]; pH 8.2, nutrient agar) | Minimum Inhibitory Concentration (MIC) ([5]; pH 6.8, nutrient agar) | Minimum Inhibitory Concentration (MIC) ([5]; pH 8.2, nutrient agar) | Minimum Inhibitory Concentration (MIC) [6] | Minimum Inhibitory Concentration (MIC) ([7]; pH 6.8, nutrient agar) | Minimum Inhibitory Concentration (MIC) ([7]; pH 8.2, nutrient agar) | Minimum Inhibitory Concentration (MIC) [8] | Minimum Inhibitory Concentration (MIC) ([9]; pH 6.8, nutrient agar) | Minimum Inhibitory Concentration (MIC) ([9]; pH 8.2, nutrient agar) | Minimum Inhibitory Concentration (MIC) ([10]; pH 6.8, nutrient agar) | Minimum Inhibitory Concentration (MIC) ([10]; pH 8.2, nutrient agar) | Minimum Inhibitory Concentration (MIC) ([11]; pH 6.8, nutrient agar) | Minimum Inhibitory Concentration (MIC) ([11]; pH 8.2, nutrient agar) | Minimum Inhibitory Concentration (MIC) [12] | also measured
1 | COP(=O)(C=C(Cl)C#N)OC [Compound A, Phosphonic acid, (2-chloro-2-cyanoethenyl)-dimethyl ester] | 250 ppm | 500 ppm | 250 ppm | > 500 ppm | 50 ppm | 250 ppm | > 500 ppm | 250 ppm | > 500 ppm | 100 ppm | 50 ppm | > 10 ppm | 100 ppm | 500 ppm | > 500 ppm | 500 ppm | > 500 ppm | 25 ppm | 500 ppm | 250 ppm | Minimum Inhibitory Concentration (MIC) [13]: 100 ppm; Minimum Inhibitory Concentration (MIC) [14]: 50 ppm; Minimum Inhibitory Concentration (MIC) ([15]; pH 6.8, nutrient agar): 500 ppm; Minimum Inhibitory Concentration (MIC) ([15]; pH 8.2, nutrient agar): > 500 ppm
2 | CCOP(=O)(C=C(Cl)C#N)OCC [Compound B, Phosphonic acid, (2-chloro-2-cyanoethenyl)-diethyl ester] | 50 ppm | > 500 ppm | 50 ppm | > 500 ppm | 50 ppm | 25 ppm | > 500 ppm | 25 ppm | > 500 ppm | 250 ppm | 25 ppm | > 500 ppm | 100 ppm | 100 ppm | > 500 ppm | 250 ppm | > 500 ppm | 25 ppm | > 500 ppm | 250 ppm | Minimum Inhibitory Concentration (MIC) [13]: 100 ppm; Minimum Inhibitory Concentration (MIC) [14]: 100 ppm; Minimum Inhibitory Concentration (MIC) ([15]; pH 6.8, nutrient agar): 250 ppm; Minimum Inhibitory Concentration (MIC) ([15]; pH 8.2, nutrient agar): > 500 ppm
